Experimental data reported in patent publication US4256836A, “Addition compound of dipeptide derivative and amino acid derivative” (Toyo Soda Manufacturing Co. Ltd., priority 1977, dated 1981).
Where a SMILES comes first, the peptide text is derived from it. The star is where a group is joined. Cbz = O=C(OCc1ccccc1)*

Columns and labels:
[1] = solubility in water or acidic aqueous solution; assay type: physicochemical; settings: at 25° C.
[2] = relative to sugar; cited from earlier work

Compound	solubility in water [1]	solubility in diluted hydrochloric acid ([1]; diluted hydrochloric acid (10^-2 M))	sweetness [2]
COC(=O)[C@H](Cc1ccccc1)NC(=O)[C@H](CC(=O)O)NC(=O)OCc1ccccc1 (Cbz-Asp-Phe-OMe)	0.028 g/100 g water	0.017 g/100 g diluted hydrochloric acid (10^-2 M)	–
COC(=O)[C@H](Cc1ccccc1)NC(=O)[C@@H](N)CC(=O)O [α-L-Aspartyl-L-phenylalanine methyl ester] (H-Asp-Phe-OMe)	–	–	about 200 times of that of sugar
